Source: US12522583B2, “Benzimidazole derivatives and aza-benzimidazole derivatives as Janus kinase 2 inhibitors and uses thereof” (Dana-Farber Cancer Institute, Inc., priority 2018, dated 2026)

Assays:
Experiment in all cases: KINOMEscan
Format in all cases: binding
Conditions in all cases: read-out: percent control
FLT3(K663Q) = FLT3(K663Q) (Homo sapiens (Human), UniProt P36888, K663Q)
Excerpt: (§1) Example 2. In Vitro Kinase Selectivity Profiling of the Compounds of the Present Disclosure

ERBB4 = ERBB4 (Homo sapiens (Human), UniProt Q15303)
ERBB4, sequence (Q15303 26-1308): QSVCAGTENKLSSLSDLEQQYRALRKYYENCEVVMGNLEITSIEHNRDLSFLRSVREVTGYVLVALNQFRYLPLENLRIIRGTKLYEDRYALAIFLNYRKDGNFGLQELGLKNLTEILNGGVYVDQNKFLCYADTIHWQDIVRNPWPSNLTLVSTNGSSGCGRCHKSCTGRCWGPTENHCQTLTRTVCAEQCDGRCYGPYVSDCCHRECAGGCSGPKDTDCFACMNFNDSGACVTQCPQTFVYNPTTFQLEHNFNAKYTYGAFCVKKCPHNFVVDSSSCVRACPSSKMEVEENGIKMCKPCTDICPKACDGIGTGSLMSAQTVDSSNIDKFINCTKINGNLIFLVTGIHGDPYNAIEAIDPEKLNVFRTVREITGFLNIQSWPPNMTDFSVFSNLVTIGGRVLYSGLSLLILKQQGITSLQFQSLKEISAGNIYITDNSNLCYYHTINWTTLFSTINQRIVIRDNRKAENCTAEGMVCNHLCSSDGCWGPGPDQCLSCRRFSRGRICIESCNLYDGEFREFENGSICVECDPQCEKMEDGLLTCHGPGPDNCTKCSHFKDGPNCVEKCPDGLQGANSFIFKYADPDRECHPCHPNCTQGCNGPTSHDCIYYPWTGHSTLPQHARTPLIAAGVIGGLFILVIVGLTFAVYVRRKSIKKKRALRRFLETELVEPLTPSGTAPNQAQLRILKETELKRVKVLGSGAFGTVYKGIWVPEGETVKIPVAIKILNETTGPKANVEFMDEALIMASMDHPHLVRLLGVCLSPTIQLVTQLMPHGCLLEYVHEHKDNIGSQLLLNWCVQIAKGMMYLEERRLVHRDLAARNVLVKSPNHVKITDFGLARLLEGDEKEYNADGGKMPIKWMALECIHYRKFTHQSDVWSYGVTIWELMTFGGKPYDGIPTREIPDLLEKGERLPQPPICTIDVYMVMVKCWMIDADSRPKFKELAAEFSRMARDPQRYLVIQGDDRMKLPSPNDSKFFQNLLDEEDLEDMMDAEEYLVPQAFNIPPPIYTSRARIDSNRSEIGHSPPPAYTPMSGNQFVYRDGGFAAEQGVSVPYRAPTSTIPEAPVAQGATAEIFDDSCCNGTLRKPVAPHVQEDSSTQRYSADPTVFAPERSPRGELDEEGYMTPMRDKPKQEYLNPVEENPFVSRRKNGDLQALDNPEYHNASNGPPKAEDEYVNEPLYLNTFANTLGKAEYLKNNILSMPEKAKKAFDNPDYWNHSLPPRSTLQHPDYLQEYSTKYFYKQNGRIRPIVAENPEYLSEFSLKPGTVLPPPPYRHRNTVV
Excerpt: as §1

NEK3 = NEK3 (Homo sapiens (Human), UniProt P51956)
Excerpt: as §1

[1] = target: EGFR(L747-S752del, P753S) (Homo sapiens (Human), UniProt P00533, DEL747-752/P753S)
Excerpt: as §1

INSRR = INSRR (Homo sapiens (Human), UniProt P14616)
Excerpt: as §1

STK39 = STK39 (Homo sapiens (Human), UniProt Q9UEW8)
Excerpt: as §1

KIT(V559D, V654A) = KIT(V559D, V654A) (Homo sapiens (Human), UniProt P10721, V559D/V654A)
Excerpt: as §1

DYRK1B = DYRK1B (Homo sapiens (Human), UniProt Q9Y463)
DYRK1B, sequence (Q9Y463 whole entry): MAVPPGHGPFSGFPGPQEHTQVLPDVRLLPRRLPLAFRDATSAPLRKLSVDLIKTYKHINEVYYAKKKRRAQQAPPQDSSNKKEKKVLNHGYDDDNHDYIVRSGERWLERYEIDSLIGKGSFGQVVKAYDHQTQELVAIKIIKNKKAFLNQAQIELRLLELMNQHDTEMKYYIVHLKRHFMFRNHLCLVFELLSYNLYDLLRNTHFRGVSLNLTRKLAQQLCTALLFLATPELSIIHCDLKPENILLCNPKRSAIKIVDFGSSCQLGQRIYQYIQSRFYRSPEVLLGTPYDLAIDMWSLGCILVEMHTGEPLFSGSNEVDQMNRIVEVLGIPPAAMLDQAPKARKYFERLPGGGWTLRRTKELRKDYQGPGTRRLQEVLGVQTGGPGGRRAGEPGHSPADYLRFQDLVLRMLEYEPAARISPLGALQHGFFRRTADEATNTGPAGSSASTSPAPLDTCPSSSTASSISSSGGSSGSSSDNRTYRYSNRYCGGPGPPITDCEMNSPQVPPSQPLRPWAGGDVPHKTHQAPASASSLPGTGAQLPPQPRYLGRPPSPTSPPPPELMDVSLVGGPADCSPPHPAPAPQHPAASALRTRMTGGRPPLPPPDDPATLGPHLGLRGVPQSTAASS
Excerpt: as §1

EPHA8 = EPHA8 (Homo sapiens (Human), UniProt P29322)
Excerpt: as §1

p38-alpha = p38-alpha (Homo sapiens (Human), UniProt Q16539)
Excerpt: as §1

EPHB3 = EPHB3 (Homo sapiens (Human), UniProt P54753)
Excerpt: as §1

LTK = LTK (Homo sapiens (Human), UniProt P29376)
Excerpt: as §1

ALK(L1196M) = ALK(L1196M) (Homo sapiens (Human), UniProt Q9UM73, L1196M)
Excerpt: as §1

ADCK3 = ADCK3 (Homo sapiens (Human), UniProt Q8NI60)
Excerpt: as §1

p38-delta = p38-delta (Homo sapiens (Human), UniProt O15264)
Excerpt: as §1

NEK11 = NEK11 (Homo sapiens (Human), UniProt Q8NG66)
Excerpt: as §1

LRRK2(G20195) = LRRK2(G20195) (Homo sapiens (Human), UniProt Q5S007, G2019S)
Excerpt: as §1

MRCKB = MRCKB (Homo sapiens (Human), UniProt Q9Y5S2)
Excerpt: as §1

BRK = BRK (Homo sapiens (Human), UniProt Q13882)
Excerpt: as §1

TYRO3 = TYRO3 (Homo sapiens (Human), UniProt Q06418)
Excerpt: as §1

ERK1 = ERK1 (Homo sapiens (Human), UniProt P27361)
ERK1, sequence (P27361 whole entry): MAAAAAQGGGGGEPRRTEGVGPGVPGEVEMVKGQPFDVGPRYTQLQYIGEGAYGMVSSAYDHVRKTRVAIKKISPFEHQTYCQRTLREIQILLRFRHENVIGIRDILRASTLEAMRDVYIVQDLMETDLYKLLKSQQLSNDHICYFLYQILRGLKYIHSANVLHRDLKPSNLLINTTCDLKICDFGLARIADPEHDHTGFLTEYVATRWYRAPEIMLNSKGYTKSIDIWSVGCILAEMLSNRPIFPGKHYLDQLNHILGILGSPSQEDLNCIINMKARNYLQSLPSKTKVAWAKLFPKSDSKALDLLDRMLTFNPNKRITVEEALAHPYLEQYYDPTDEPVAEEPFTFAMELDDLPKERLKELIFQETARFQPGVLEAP
Excerpt: as §1

MST3 = MST3 (Homo sapiens (Human), UniProt Q9Y6E0)
MST3, sequence (Q9Y6E0 whole entry): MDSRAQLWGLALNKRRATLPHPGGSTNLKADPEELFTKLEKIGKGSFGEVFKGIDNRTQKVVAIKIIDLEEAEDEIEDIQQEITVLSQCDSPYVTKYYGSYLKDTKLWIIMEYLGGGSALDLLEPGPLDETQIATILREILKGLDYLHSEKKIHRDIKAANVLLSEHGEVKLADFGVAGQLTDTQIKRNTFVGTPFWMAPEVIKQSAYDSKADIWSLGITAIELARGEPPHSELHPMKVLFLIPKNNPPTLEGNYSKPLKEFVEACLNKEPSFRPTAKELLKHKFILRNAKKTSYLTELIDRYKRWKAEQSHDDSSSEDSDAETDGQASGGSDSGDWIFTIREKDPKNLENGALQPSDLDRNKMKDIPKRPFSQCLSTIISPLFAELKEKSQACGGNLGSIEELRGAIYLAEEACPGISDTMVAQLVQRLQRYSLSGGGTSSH
Excerpt: as §1

MRCKA = MRCKA (Homo sapiens (Human), UniProt Q5VT25)
Excerpt: as §1

EPHA4 = EPHA4 (Homo sapiens (Human), UniProt P54764)
Excerpt: as §1

PAK7 = PAK7 (Homo sapiens (Human), UniProt Q9P286)
PAK7, sequence (Q9P286 whole entry): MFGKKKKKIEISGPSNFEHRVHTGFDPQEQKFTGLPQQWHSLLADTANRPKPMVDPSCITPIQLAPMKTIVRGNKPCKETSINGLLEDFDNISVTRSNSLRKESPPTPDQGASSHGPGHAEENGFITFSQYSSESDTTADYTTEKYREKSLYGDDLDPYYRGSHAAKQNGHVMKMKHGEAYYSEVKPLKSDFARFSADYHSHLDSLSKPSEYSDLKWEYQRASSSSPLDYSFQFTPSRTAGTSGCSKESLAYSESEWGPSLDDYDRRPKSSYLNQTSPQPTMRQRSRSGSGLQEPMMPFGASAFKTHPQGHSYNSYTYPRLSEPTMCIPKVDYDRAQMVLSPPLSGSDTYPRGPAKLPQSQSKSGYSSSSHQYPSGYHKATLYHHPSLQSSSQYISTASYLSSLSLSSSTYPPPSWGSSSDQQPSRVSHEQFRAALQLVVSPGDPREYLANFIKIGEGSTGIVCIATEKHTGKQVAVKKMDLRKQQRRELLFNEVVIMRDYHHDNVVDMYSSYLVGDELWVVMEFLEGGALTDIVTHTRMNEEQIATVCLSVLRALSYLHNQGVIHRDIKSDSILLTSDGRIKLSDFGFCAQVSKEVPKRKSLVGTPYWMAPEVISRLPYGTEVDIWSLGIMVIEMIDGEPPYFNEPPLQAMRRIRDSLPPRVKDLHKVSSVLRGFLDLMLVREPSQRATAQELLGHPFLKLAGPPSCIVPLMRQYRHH
Excerpt: as §1

RIOK2 = RIOK2 (Homo sapiens (Human), UniProt Q9BVS4)
Excerpt: as §1

LOK = LOK (Homo sapiens (Human), UniProt O94804)
Excerpt: as §1

GSK3B = GSK3B (Homo sapiens (Human), UniProt P49841)
GSK3B, sequence (P49841 whole entry): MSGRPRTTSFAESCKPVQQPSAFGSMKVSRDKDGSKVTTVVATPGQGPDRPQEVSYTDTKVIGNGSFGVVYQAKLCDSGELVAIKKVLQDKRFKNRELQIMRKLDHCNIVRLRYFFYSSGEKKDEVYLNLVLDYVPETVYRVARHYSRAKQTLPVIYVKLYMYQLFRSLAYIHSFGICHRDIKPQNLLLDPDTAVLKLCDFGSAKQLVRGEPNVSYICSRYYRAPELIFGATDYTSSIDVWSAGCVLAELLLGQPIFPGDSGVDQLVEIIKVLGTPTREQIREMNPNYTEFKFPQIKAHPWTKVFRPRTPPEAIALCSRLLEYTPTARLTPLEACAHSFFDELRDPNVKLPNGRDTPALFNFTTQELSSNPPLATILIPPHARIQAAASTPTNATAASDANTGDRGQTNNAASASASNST
Excerpt: as §1

MTOR = MTOR (Homo sapiens (Human), UniProt P42345)
Excerpt: as §1

HASPIN = HASPIN (Homo sapiens (Human), UniProt Q8TF76)
Excerpt: as §1

MYLK4 = MYLK4 (Homo sapiens (Human), UniProt Q86YV6)
Excerpt: as §1

DAPK1 = DAPK1 (Homo sapiens (Human), UniProt P53355)
Excerpt: as §1

CDC2L2 = CDC2L2 (Homo sapiens (Human), UniProt Q9UQ88)
Excerpt: as §1

PIK4CB = PIK4CB (Homo sapiens (Human), UniProt Q9UBF8)
Excerpt: as §1

MELK = MELK (Homo sapiens (Human), UniProt Q14680)
Excerpt: as §1

KIT(D816H) = KIT(D816H) (Homo sapiens (Human), UniProt P10721, D816H)
Excerpt: as §1

EGFR(E746-A750del) = EGFR(E746-A750del) (Homo sapiens (Human), UniProt P00533, DEL746-750)
EGFR(E746-A750del), sequence (P00533 other isoform, or with tags, fused parts or gaps del E746-A750): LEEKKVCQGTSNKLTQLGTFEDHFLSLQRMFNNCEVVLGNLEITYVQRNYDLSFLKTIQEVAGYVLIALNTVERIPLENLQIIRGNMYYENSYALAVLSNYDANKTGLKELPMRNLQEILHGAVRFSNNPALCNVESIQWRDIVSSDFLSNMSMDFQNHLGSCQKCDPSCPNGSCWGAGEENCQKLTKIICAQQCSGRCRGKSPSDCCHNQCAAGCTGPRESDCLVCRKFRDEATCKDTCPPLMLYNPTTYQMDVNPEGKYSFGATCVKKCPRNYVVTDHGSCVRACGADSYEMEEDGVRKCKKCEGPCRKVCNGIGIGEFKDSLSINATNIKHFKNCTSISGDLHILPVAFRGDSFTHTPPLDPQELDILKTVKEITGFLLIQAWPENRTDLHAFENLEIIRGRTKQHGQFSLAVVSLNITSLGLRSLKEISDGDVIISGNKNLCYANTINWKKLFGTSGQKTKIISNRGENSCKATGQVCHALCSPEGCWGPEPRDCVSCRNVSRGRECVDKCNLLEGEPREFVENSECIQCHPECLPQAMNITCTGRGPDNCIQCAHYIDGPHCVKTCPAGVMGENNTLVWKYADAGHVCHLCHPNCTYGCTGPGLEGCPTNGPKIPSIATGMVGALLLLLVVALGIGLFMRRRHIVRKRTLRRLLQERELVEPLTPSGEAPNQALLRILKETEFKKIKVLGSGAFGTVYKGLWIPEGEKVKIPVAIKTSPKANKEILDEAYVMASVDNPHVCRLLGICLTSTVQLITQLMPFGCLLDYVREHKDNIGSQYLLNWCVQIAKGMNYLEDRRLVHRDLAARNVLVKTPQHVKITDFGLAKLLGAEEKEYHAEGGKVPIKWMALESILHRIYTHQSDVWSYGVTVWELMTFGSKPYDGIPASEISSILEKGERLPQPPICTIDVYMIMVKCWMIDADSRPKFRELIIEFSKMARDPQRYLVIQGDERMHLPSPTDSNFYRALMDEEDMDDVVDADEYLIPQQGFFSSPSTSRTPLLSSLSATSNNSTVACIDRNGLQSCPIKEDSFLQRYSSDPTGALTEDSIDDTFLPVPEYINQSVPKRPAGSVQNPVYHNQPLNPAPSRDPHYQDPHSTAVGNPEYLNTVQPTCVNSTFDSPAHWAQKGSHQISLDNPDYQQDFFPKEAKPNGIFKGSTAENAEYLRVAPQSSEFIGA
Excerpt: as §1

FLT3(D835V) = FLT3(D835V) (Homo sapiens (Human), UniProt P36888, D835V)
Excerpt: as §1

NEK10 = NEK10 (Homo sapiens (Human), UniProt Q6ZWH5)
Excerpt: as §1

| Structure (SMILES) | remaining binding at 1 µM (FLT3(K663Q)) [%] | remaining binding at 1 µM (ERBB4) [%] | remaining binding at 1 µM (NEK3) [%] | remaining binding at 1 µM [1] [%] | remaining binding at 1 µM (INSRR) [%] | remaining binding at 1 µM (STK39) [%] | remaining binding at 1 µM (KIT(V559D, V654A)) [%] | remaining binding at 1 µM (DYRK1B) [%] | remaining binding at 1 µM (EPHA8) [%] | remaining binding at 1 µM (p38-alpha) [%] | remaining binding at 1 µM (EPHB3) [%] | remaining binding at 1 µM (LTK) [%] | remaining binding at 1 µM (ALK(L1196M)) [%] | remaining binding at 1 µM (ADCK3) [%] | remaining binding at 1 µM (p38-delta) [%] | remaining binding at 1 µM (NEK11) [%] | remaining binding at 1 µM (LRRK2(G20195)) [%] | remaining binding at 1 µM (MRCKB) [%] | remaining binding at 1 µM (BRK) [%] | remaining binding at 1 µM (TYRO3) [%] | further results |
| --- | --- | --- | --- | --- | --- | --- | --- | --- | --- | --- | --- | --- | --- | --- | --- | --- | --- | --- | --- | --- | --- |
| CCN1CCN(Cc2ccc(Nc3nc4ccc(Oc5ccnc(NC(C)=O)c5)cc4n3C)cc2C(F)(F)F)CC1 [Compound I-2] | 16 | 84 | 77 | 80 | 5.3 | 62 | 7.4 | 71 | 43 | 92 | 96 | 61 | 78 | 85 | 77 | 100 | 100 | 100 | 100 | 100 | remaining binding at 1 µM (ERK1): 100%; remaining binding at 1 µM (MST3): 94%; remaining binding at 1 µM (MRCKA): 100%; remaining binding at 1 µM (EPHA4): 100%; remaining binding at 1 µM (PAK7): 86%; remaining binding at 1 µM (RIOK2): 51%; remaining binding at 1 µM (LOK): 21%; remaining binding at 1 µM (GSK3B): 76%; remaining binding at 1 µM (MTOR): 100%; remaining binding at 1 µM (HASPIN): 100%; remaining binding at 1 µM (MYLK4): 100%; remaining binding at 1 µM (DAPK1): 87%; remaining binding at 1 µM (CDC2L2): 0.1%; remaining binding at 1 µM (PIK4CB): 99%; remaining binding at 1 µM (MELK): 83%; remaining binding at 1 µM (KIT(D816H)): 22%; remaining binding at 1 µM (EGFR(E746-A750del)): 91%; remaining binding at 1 µM (FLT3(D835V)): 51%; remaining binding at 1 µM (NEK10): 100% |
| CCN1CCN(Cc2ccc(Nc3nc4ccc(Oc5ccnc(NC(C)=O)c5)c(C)c4n3C)cc2C(F)(F)F)CC1 [Compound I-6, N-(4-(2-(4-((4-ethylpiperazin-1-yl)methyl)-3-(trifluoromethyl)phenylamino)-1,7-dimethyl-1H-benzo[d]imidazol-6-yloxy)pyridin-2-yl)acetamide] | 9.3 | 94 | 92 | 94 | 5.8 | 93 | 19 | 50 | 2.5 | 44 | 100 | 22 | 51 | 100 | 73 | 61 | 69 | 100 | 89 | 100 | remaining binding at 1 µM (ERK1): 100%; remaining binding at 1 µM (MST3): 90%; remaining binding at 1 µM (MRCKA): 98%; remaining binding at 1 µM (EPHA4): 91%; remaining binding at 1 µM (PAK7): 16%; remaining binding at 1 µM (RIOK2): 96%; remaining binding at 1 µM (LOK): 0.45%; remaining binding at 1 µM (GSK3B): 100%; remaining binding at 1 µM (MTOR): 100%; remaining binding at 1 µM (HASPIN): 93%; remaining binding at 1 µM (MYLK4): 96%; remaining binding at 1 µM (DAPK1): 99%; remaining binding at 1 µM (CDC2L2): 0.2%; remaining binding at 1 µM (PIK4CB): 73%; remaining binding at 1 µM (MELK): 93%; remaining binding at 1 µM (KIT(D816H)): 44%; remaining binding at 1 µM (EGFR(E746-A750del)): 89%; remaining binding at 1 µM (FLT3(D835V)): 40%; remaining binding at 1 µM (NEK10): 79% |
